# Data taken from patent US9932339B2, “Helquats with heteroaromatic substituents, preparation thereof, and use thereof as G-quadruplex stabilizers” (USTAV ORGANICKE CHEMIE A BIOCHEMIE AV CR, V.V.I., priority 2014, dated 2018).
# What was measured:
# [1] = test system: G-quadruplex oligonucleotide F21T (human telomere); test: FRET melting of G-quadruplex oligonucleotide F21T with ligands; type: binding; settings: for ΔTm (° C.) F21T/ds26: helquat 1 μmol·l^−1, oligonucleotide 0.2 μmol·l^−1, 50-fold excess of double-stranded competitor ds26; for ΔTm (° C.) F21T: helquat 1 μmol·l^−1, oligonucleotide 0.2 μmol·l^−1, without competitor
# Source text: To determine the degree of in vitro interactions of helquats with G-quadruplex(es), the oligonucleotides containing the guanine-rich sequences of human telomere (F21T) and NHE III1 promoter region of c-myc oncogene (Fmyc27T) were used. Both oligonucleotides capable of forming an intramolecular G-quadruplex were end-labeled with suitable fluorophores so as to form donor-acceptor FRET pair (5′-FAM and 3′-TAMRA). If the oligonucleotide is folded into the structure of the G-quadruplex, donor is in close proximity of acceptor and radiationless energy transfer to the acceptor occurs. With increasing temperature of the reaction mixture G-quadruplex structure gradually denatures and thus the donor and acceptor (FAM-TAMRA) drift apart. This leads to an increase in fluorescence of donor (FAM) and a decrease in fluorescence of acceptor (TAMRA).
# The result of measurement is the curve of dependence of the intensity of fluorescence of the donor on the temperature. If the G-quadruplex is stabilized by ligand, melting temperature will increase. Melting temperature of G-quadruplex corresponds to the temperature when 50% of the original amount of the folded G-quadruplex is denatured. The measurement outcome is the difference in the melting temperatures (ΔTm) of the G-quadruplex alone and the G-quadruplex stabilized by ligand. In case of Fmyc27T experiments were performed in cacodylate buffer (10 mmol·l^−1, pH=7.2) with KCl (5 mmol·l^−1) and LiCl (95 mmol·l^−1) oligonucleotide and in case of F21T oligonucleotide in cacodylate buffer (10 mmol·l^−1, pH=7.2) with KCl (25 mmol·l^−1) and LiCl (75 mmol·l^−1).
# Both oligonucleotides were denatured for 5 minutes at 95° C. and subsequently allowed to cool to room temperature (3 hours) in the switched-off thermoblock. The final oligonucleotide concentration in the reaction mixture was 0.2 μmol·l^−1. Test helquats were present at concentrations of 1 μmol·l^−1. The total reaction volume was 30 μl. The melting temperature of the oligonucleotides alone (without the presence of helquats) under these conditions was 58.1±0.2° C. for F21T and 64.7±0.4° C. for Fmyc27T. For determining the selectivity of binding of helquats to G-quadruplex in comparison with the double-stranded DNA, 50-fold excess of double-stranded DNA ([…] unlabeled competitor ds26 forming a hairpin) is added to the reaction mixture. After the addition to the reaction mixture ds26 competes with labeled oligonucleotide (Fmyc27T or F21T) for ligand binding. […] Melting temperature of oligonucleotides alone in the presence of the competitor is 59.4±0.5° C. for F21T and 66.3° C.±0.6° C. for Fmyc27T.
# Fluorescence of FAM donor was measured using real-time PCR apparatus Opticon 2 (excitation 470-505 nm and emission 523-543 nm) in temperature increments of 0.5° C. in the range 25 to 95° C. Evaluation of the sigmoid curves of fluorescence intensity dependent on the temperature were performed in GraphPad Prism 5 (GraphPad Software, Inc., USA). Using nonlinear five parametric regression the inflection point on the curve was calculated that corresponds to the melting temperature (Tm) of the G-quadruplex under the given conditions. The values were obtained from at least three independent measurements.
# [2] = test system: c-Myc27 oligonucleotide G-quadruplex; test: ECD melting curve of c-Myc27 oligonucleotide G-quadruplex with ligands; type: binding; settings: ECD at 263 nm; molar ratio oligonucleotide:ligand 1:1 (5 μmol l^−1 each); Li+-cacodylate buffer
# Procedure: ECD spectra were measured on J-815 spectrometer (Jasco, Japan). Measurement settings (Tab. 3), spectra saving and background subtraction was performed in a Spectra Manager software (Jasco, Japan).
# For measurement of the temperature dependencies the cuvettes in the cuvette compartment were placed in the Peltier module, the temperature was controlled by the Spectra Manager software. Melting curves were measured at a wavelength which corresponds to the maximum difference in signal intensity of ECD spectra of oligonucleotide at 25 and 95° C., as shown in FIG. 1. Before and after measuring the melting curves, ECD spectra in extreme temperatures were measured, in order to verify the stability of the studied system.
# Processing of the spectra was performed using Spectra Manager (Jasco, Japan). The resulting spectra were obtained from the measured sample spectrum after subtraction of background spectrum, which was spectrum of the solvent. Measuring of sample spectrum and background was conducted under identical conditions. ECD spectra are reported as ellipticity, labeled in the CD figures [mdeg], whose numerical value is associated with dimensionless circular dichroism ΔA (CDv=32980 ΔAv). This CD notations preserves conventions of the international journals in which articles from the field are published.
# Stock solution of […] was prepared from c-Myc27 oligonucleotide by dissolution in H2O. The cuvette of 1 mm thickness was filled with 7 μl of oligonucleotide solution and 133 μl of Li^+-cacodylate buffer. Oligonucleotide solution in the cuvette was overlayed with mineral oil to measure temperature dependencies without concentration changes due to evaporation of the solvent at higher temperatures.
# From stock solutions of the racemic ligands in DMSO at a concentration of […] solutions were prepared at a concentration of 140 μmol l^−1 by dissolving in H2O. Ligands were added to the solution of oligonucleotide under buffer/mineral oil interface using Hamilton microsyringe (5 μl of solution at a concentration of […]). The resulting molar ratio of oligonucleotide:ligand was 1:1.
# The cuvette filled with c-Myc27 oligonucleotide solution in Li^+-cacodylate buffer (cc-Myc27=5 μmol l^−1) was first heated for 5 minutes at 95° C., at this temperature ECD spectrum was measured. Then the sample was cooled to 25° C., allowed to stabilize for 10 min and then ECD spectrum was measured again. Then, the melting curve of ECD oligonucleotide at 263 nm was measured in the temperature range 25-95° C. and for verification of the stability of the sample spectra the spectra were measured again at 95 and 25° C. Under the oil layer ligand solution (cligand=5 μmol l^−1) was added to a solution of oligonucleotide, the sample was thoroughly mixed and ECD spectrum measured at 25° C., the melting curve was obtained and again control spectra were measured at 95 and 25° C.
# Decomposition of the G-quadruplex structure in the presence of ligands under influence of temperature was monitored at the wavelength corresponding to the maximum difference in signal intensities of ECD oligonucleotide/ligand at 25 and 95° C., i.e. at 263 nm. Thermal stability of G-quadruplex was monitored in the range of 25 to 95° C. and in a molar ratio of oligonucleotide:ligand=1:1. Example of influence of the studied ligand on the stability of G-quadruplex formed from c-Myc27 oligonucleotide is shown in FIG. 2.
# The degree of G-quadruplex stabilization was expressed as change of melting temperature caused by the presence of G-quadruplex ligands (ΔTm): ΔTm=Tm,oligonucleotide+ligand−Tm,oligonucleotide (1), • where Tm,oligonucleotide+ligand is melting temperature of molecular system comprising the oligonucleotide and the ligand and Tm,oligonucleotide, the melting temperature of the oligonucleotide itself. Tab. 4 summarizes the changes in melting temperatures of c-Myc27 oligonucleotide G-quadruplex in the presence of studied ligands.
Structure (SMILES),ΔTm (° C.) F21T/ds26 [1] [°C],ΔTm (° C.) F21T [1] [°C],ΔTm (° C.) [2] [°C]
"O=[N+]([O-])c1cccc2[nH]cc(/C=C/c3cc[n+]4c(c3)-c3c(ccc5c3-c3cccc[n+]3CC5)CC4)c12 (racemic) [LSA-C9-32, (rac)-(E)-2-(2-(4-nitro-1H-indol-3-yl)vinyl)-6,7,10,11-tetrahydrodipyrido[2,1-a:1′,2′-k][2,9]phenanthroline-5,12-diium trifluoromethanesulfonate]",6.6,9.3,
"Cc1c(C)c2c(c3c1CC[n+]1ccc(/C=C/c4cccc5c4oc4ccccc45)cc1-3)-c1c3ccccc3cc[n+]1CC2 (racemic) [MJA-C13-8, (rac)-(E)-13-(2-(dibenzo[b,d]furan-4-yl)vinyl)-6,7-dimethyl-4,5,8,9-tetrahydroisoquinolino[1,2-a]pyrido[1,2-k][2,9]phenanthroline-3,10-diium trifluoromethanesulfonate]",1.4,7.4,6.8
"C(=C\c1cccc2c1oc1ccccc12)/c1cc[n+]2c(c1)-c1c(ccc3c1-c1c4ccccc4cc[n+]1CC3)CC2.O=S(=O)([O-])C(F)(F)F.O=S(=O)([O-])C(F)(F)F [MSB-C13-8, (E)-13-(2-(dibenzo[b,d]furan-4-yl)vinyl)-4,5,8,9-tetrahydroisoquinolino[1,2-a]pyrido[1,2-k][2,9]phenanthroline-3,10-diium trifluoromethanesulfonate]",3.4,9.0,
